Laboratory results taken from the METLIN SMRT retention time set (Domingo-Almenara et al. 2019).

Assay: gradient 5% acetonitrile 3 min, to 50% in 2 min, to 85% in 15 min, held 3 min, 100 µL/min
Conditions: column: Zorbax Extend-C18 2.1 x 50 mm; eluents: water / acetonitrile, 0.1% formic acid
Method in brief: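 Data were gathered over 3 months by HPLC coupled to a quadrupole time-of-flight mass spectrometer, operated in positive and negative ionization mode. Mixtures of ~100 pure standards ran on a Zorbax Extend-C18 column (2.1 × 50 mm, 1.8 μm) at 100 μL/min, with water and acetonitrile each containing 0.1% formic acid and dead and dwell volumes of 40 μL and 900 μL. Retention time was read from adduct peaks picked by computer and checked manually.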

| RP-LC retention time [s] | SMILES |
| --- | --- |
| 930 | O=C(NC1CCCCCCC1)C1CCN(Cc2cc3ccccc3n2Cc2cccc(Cl)c2)CC1 |
| 578 | Cc1ccc(NC(=O)N2CCc3nc[nH]c3C2)c(C)c1 |
| 990 | Cc1cc2nn(CC(=O)NCc3ccccc3)c(=O)n2c(Nc2ccccc2C)n1 |
| 793 | Cc1ccc(CNC(=O)c2cc(C)no2)cc1 |
| 753 | Cc1ccc(-c2ccc(N3CCCC(C(=O)Nc4ccc5c(c4)OCO5)C3)nn2)cc1 (configuration not stated) |
| 778 | Cc1ccc(F)cc1NC(=O)CSc1nc(N2CCCCC2)nc2ccccc12 |
| 617 | O=C(C1CCCCC1)N1CCN(c2nc(CN3CCOCC3)cs2)CC1 |
| 713 | Cc1ccc(CNC(=O)N(C)CC2CCOCC2)cc1 |
| 690 | Cc1cccc(NC(=O)Nc2ccc3nncn3c2)c1 |
| 651 | COc1ccc(C2(c3nc(-c4ccc5oc(C)nc5c4)no3)CC2)cc1 |
| 975 | COc1cc(OC)c(NC(=O)N2CCc3nc(-c4ccccc4)ncc3C2)cc1Cl |
| 612 | COc1ccc(CNC(=O)Cn2c(N3CCCC3)nc(C)cc2=O)cc1 |
| 830 | O=C(CSc1ncnc2c1nnn2Cc1ccccc1)Nc1ccc2c(c1)OCCO2 |
| 651 | CCc1cc(N2CCN(C(=O)COc3ccc(Cl)cc3)CC2)nc2nncn12 |
| 945 | Cc1ccc(NC(=O)CN2C(=O)CCc3cc(S(=O)(=O)N4CCCCC4C)ccc32)c(C)c1 (configuration not stated) |
| 599 | CC1CCCN(CCCNC(=O)C(=O)Nc2ccc3nc4n(c(=O)c3c2)CCCCC4)C1 (configuration not stated) |
| 850 | O=C(NCc1ccccc1)C1c2ccccc2CC(=O)N1Cc1ccccc1 (configuration not stated) |
| 552 | Cn1nc2n(c1=O)CCN(C(=O)c1ccn[nH]1)CC2 |
| 900 | COc1ccc(-c2ccc(=O)n(Cc3nc(-c4ccccc4)no3)n2)cc1OC |

| RP-LC retention time [s] | SMILES |
| --- | --- |
| 1240 | Cc1ccc(NS(=O)(=O)c2c(C)sc(C)c2-c2cc(C(F)(F)F)on2)c(C)c1 |
| 604 | CC1CC(C)CN(CCCNC(=O)CCCOc2cc(=O)n(C)c3ccccc23)C1 (configuration not stated) |
| 1200 | Cc1ccc(-c2noc(Cc3nnc(-c4ccc(C)c(C)c4)o3)n2)cc1 |
| 618 | COCc1c(C(=O)N2CCC3(CCC3O)CC2)noc1C (configuration not stated) |
| 722 | COc1ccc(C(=O)CC2(O)C(=O)Nc3ccc(C)cc32)c(OC)c1OC (configuration not stated) |
| 550 | COCC(=O)N1CCOc2ccc(N(C)C)cc2C1 |
| 666 | Cc1cc(NC(=O)CN2CCc3[nH]c4c(C)ccc(C)c4c(=O)c3C2)ccc1F |
| 590 | CN1C(=O)[C@H]2CN(Cc3ccc(F)c(F)c3)C[C@H]2C1=O |
| 947 | COc1cccc(NC(=O)N2CCCC2c2nc(-c3cccc(OC)c3)no2)c1 (configuration not stated) |
| 947 | CCC1Oc2ccc(S(=O)(=O)N3CCC(C(=O)Nc4cccc(Cl)c4C)CC3)cc2NC1=O (configuration not stated) |
| 1160 | Cc1ccsc1C(=O)Nc1ccc(-c2nc(-c3ccccc3)co2)cc1 |
| 741 | O=C(NC1CCCCC1)C1CCc2sc(C(=O)N3CCOCC3)cc2C1 (configuration not stated) |
| 556 | O=C(C(=O)N1CCN(c2ccccn2)CC1)c1ccc[nH]1 |
| 615 | Cc1ccc(CNC(=O)Cn2ncc3c(N4CCN(c5ccccn5)CC4)ncnc32)cc1 |
| 836 | Cc1ccc(C)c(C(=O)N2C[C@H](c3nc(-c4cccnc4)no3)[C@@H](C)C2)c1 |
| 673 | O=C(NCC1CCCO1)C1COC2(CCN(C(=O)c3ccccc3F)CC2)N1C(=O)c1ccccc1 (configuration not stated) |
| 869 | O=C(Cn1nc2c3sc(N4CCCCC4)nc3ncn2c1=O)Nc1ccc(F)c(Cl)c1 |
| 770 | Cc1ccc(-c2nc(N3CCOCC3)ncc2C(=O)O)cc1 |
